In US7417156B2, “Orally active, antimalarial, anticancer, artemisinin-derived trioxane dimers” (Johns Hopkins University, priority 2002, dated 2008):
Read-outs that look alike come from different tables or passages of the source. One block for each compound: values may come before it.

Assays:
[1] = tested on: 60 cell line panel; type: cell-based; conditions: for Log10LC50 Delta / Log10LC50 Range / Log10TGI50 Delta / Log10TGI50 Range: 60 cell line panel
[2] = tested on: CCRF-CEM; assay: NCI 60 cell line panel screen (SRB); type: cell-based, human
[3] = tested on: HL-60(TB); assay: NCI 60 cell line panel screen (SRB); type: cell-based, human; conditions: for Log10LC50 / Log10TGI50: HL-60(TB) (Leukemia); for Log10LC50: LC50: PG=−50; for Log10TGI50: TGI: PG=0; for Log10GI50: Leukemia, HL-60(TB)
[4] = tested on: K-562; assay: NCI 60 cell line panel screen (SRB); type: cell-based, human; conditions: for Log10LC50 / Log10TGI50: K-562 (Leukemia); for Log10LC50: LC50: PG=−50; for Log10TGI50: TGI: PG=0; for Log10GI50: Leukemia, K-562
[5] = tested on: MOLT-4; conditions: for Log10GI50: Leukemia, MOLT-4; for Log10LC50 / Log10TGI50: MOLT-4 (Leukemia); for Log10LC50: LC50: PG=−50; for Log10TGI50: TGI: PG=0; for concentration for cytotoxicity (percentage growth −50): human, 48 h
Description: Growth Inhibition. […] The screening assay is performed on 96-well microtitre plates. Relatively high initial inoculation densities are used, in order to permit measurement of “time-zero” values and to enhance the screen's ability to detect and provide some differentiation between growth inhibition and cytotoxic response parameters. […] The inoculated microtitre plates are pre-incubated for 24 hours at 37° C. prior to drug additions. The five drug dilutions tested routinely range from 10^−4 to 10^−8 molar. Higher or lower concentration ranges may be selected on a non-routine basis if appropriate solubility and/or prior biological information or other screening data so dictate. Duplicate wells are prepared for all concentrations, (concentration is often denoted by placing brackets around a number); “time-zero” and “no drug” controls are also provided for each test. The minimum amount of compound required for a one-time evaluation in the routine screen can be calculated from the knowledge that each test requires a total of approximately 40 ml (0.04 liter) of cell culture medium containing the highest desired drug concentration. […] After a 48 hour incubation (37° C.) with the test compound, the cells are fixed in situ to the bottoms of the microtitre wells by addition of 50 μl of either 50% trichloroacetic acid (for adherent cell lines) or 80% trichloroacetic acid (for settled cell suspension lines), followed by incubation for 60 minutes at 4° C. The cellular protein in each well is assayed using a sulforhodamine B (SRB) stain procedure. Briefly, after discarding the supernatants, the microtitre plates are washed 5 times with deionized water and air-dried. […] Unbound SRB is removed by washing 5 times with 1% acetic acid. […] SRB is a bright pink anionic dye which, in dilute acetic acid, binds electrostatically to the basic amino acids of TCA-fixed cells. Cryopreserved master stocks of all the lines are maintained, and cultures used for screening are replaced from the master stock after no more than twenty passages in the screening laboratory. The cell line panel consists of 60 lines, organized into nine, disease-related subpanels including leukemia, non-small-cell lung cancer, colon, CNS, melanoma, ovarian, renal, prostate and breast cancers.
At this value the increase from time tzero, in the number or mass of cells in the test well is only 50% as much as the corresponding increase in the control well during this period of the experiment, see Table III. A drug effect of this intensity is interpreted as primary growth inhibition.
At this value the number or mass of cells in the well at the end of the experiment equals the number or mass of cells in the well at time tzero, see Table IV. A drug effect of this intensity is regarded as cytostasis.
At this value, the number or mass of cells in the test well at the end of the experiment is half that at time tzero, see Table V. This is interpreted as cytotoxicity.
Dose response curves, shown in the above mentioned Figures, are obtained by exposing various cancer cell lines to compounds having a known concentration ([log10M]), as discussed in detail above, and then plotting the percentage growth of each cell line for each concentration. […] Percentage growth is determined by dividing the number or mass of cells in the test well by the number or mass of cells in a control well. […] As discussed previously, the five drug dilutions routinely tested range from 10^−4 to […].

[6] = tested on: NCI-H460; assay: NCI 60 cell line panel screen (SRB); type: cell-based, human; conditions: for Log10LC50 / Log10TGI50: NCI-H460 (Non-Small Cell Lung Cancer); for Log10LC50: LC50: PG=−50; for Log10TGI50: TGI: PG=0; for Log10GI50: Non-Small Cell Lung Cancer, NCI-H460
[7] = tested on: HCT-15; assay: NCI 60 cell line panel screen (SRB); type: cell-based, human; conditions: for Log10GI50: Colon Cancer, HCT-15; for Log10LC50 / Log10TGI50: HCT-15 (Colon Cancer); for Log10LC50: LC50: PG=−50; for Log10TGI50: TGI: PG=0
[8] = tested on: KM12; assay: NCI 60 cell line panel screen (SRB); type: cell-based, human; conditions: for Log10GI50: Colon Cancer, KM12; for Log10LC50 / Log10TGI50: KM12 (Colon Cancer); for Log10LC50: LC50: PG=−50; for Log10TGI50: TGI: PG=0
[9] = tested on: UACC-257; assay: NCI 60 cell line panel screen (SRB); type: cell-based, human; conditions: for Log10GI50: Melanoma, UACC-257; for Log10LC50 / Log10TGI50: UACC-257 (Melanoma); for Log10LC50: LC50: PG=−50; for Log10TGI50: TGI: PG=0
[10] = tested on: OVCAR-3; assay: NCI 60 cell line panel screen (SRB); type: cell-based, human
[11] = tested on: ACHN; assay: NCI 60 cell line panel screen (SRB); type: cell-based, human; conditions: for Log10LC50 / Log10TGI50: ACHN (Renal Cancer); for Log10LC50: LC50: PG=−50; for Log10TGI50: TGI: PG=0
[12] = tested on: PC-3; assay: NCI 60 cell line panel screen (SRB); type: cell-based, human; conditions: for Log10LC50 / Log10TGI50: PC-3 (Prostate Cancer); for Log10LC50: LC50: PG=−50; for Log10TGI50: TGI: PG=0; for Log10GI50: Prostate Cancer, PC-3
[13] = tested on: MCF7; assay: NCI 60 cell line panel screen (SRB); type: cell-based, human; conditions: for Log10GI50: Breast Cancer, MCF7; for Log10LC50: LC50: PG=−50
[14] = tested on: chloroquine-sensitive P. falciparum (NF54); assay: Antimalarial activity in vitro, [3H]hypoxanthine incorporation; type: cell-based; conditions: Plasmodium falciparum, read-out: IC50
[15] = tested on: A549/ATCC; assay: NCI 60 cell line panel screen (SRB); type: cell-based, human
[16] = tested on: HOP-92; assay: NCI 60 cell line panel screen (SRB); type: cell-based, human
[17] = tested on: HS 578T; assay: NCI 60 cell line panel screen (SRB); type: cell-based, human

SMILES: CC(=O)O[C@H]1C(=O)[C@@]2(C)[C@H]([C@H](OC(=O)c3ccccc3)[C@]3(O)C[C@H](OC(=O)[C@H](O)[C@@H](NC(=O)c4ccccc4)c4ccccc4)C(C)=C1C3(C)C)[C@]1(OC(C)=O)CO[C@@H]1C[C@@H]2O [Paclitaxel, paclitaxel, reference compound]
- Log10GI50 Delta [1]: −10.15
- Log10GI50 Range [1]: 8.00
- Log10LC50 Delta [1]: −4.06
- Log10LC50 Range [1]: .045
- Log10TGI50 Delta [1]: −4.54
- Log10TGI50 Range [1]: 7.20
- Log10LC50 ([2]; CCRF-CEM (Leukemia), LC50: PG=−50): >−4.00 log10M
- Log10TGI50 ([2]; CCRF-CEM (Leukemia), TGI: PG=0): >−4.00 log10M
- Log10GI50 ([2]; Leukemia, CCRF-CEM): −11.61
- Log10LC50 [3]: >−4.53 log10M
- Log10TGI50 [3]: −4.53 log10M
- Log10GI50 [3]: −11.57
- Log10LC50 [4]: >−4.00 log10M
- Log10TGI50 [4]: >−4.00 log10M
- Log10GI50 [4]: −10.83
- Log10GI50 [5]: −11.07
- Log10LC50 [5]: >−4.00 log10M
- Log10TGI50 [5]: >−4.00 log10M
- drug concentration for primary growth inhibition (percentage growth +50) ([5]; MOLT-4, from dose response curves FIGS. 7a-7i): 10^−11 molar
- concentration for cytotoxicity (percentage growth −50) [5]: greater than 10^−4 M
- Log10LC50 [6]: >−4.00 log10M
- Log10TGI50 [6]: −4.92 log10M
- Log10GI50 [6]: −12.16
- Log10GI50 [7]: −6.37
- Log10LC50 [7]: >−4.00 log10M
- Log10TGI50 [7]: >−4.00 log10M
- Log10GI50 [8]: −11.43
- Log10LC50 [8]: >−4.00 log10M
- Log10TGI50 [8]: −4.36 log10M
- Log10GI50 [9]: −10.30
- Log10LC50 [9]: −4.03 log10M
- Log10TGI50 [9]: −4.52 log10M
- Log10LC50 ([10]; OVCAR-3 (Ovarian Cancer), LC50: PG=−50): >−4.00 log10M
- Log10TGI50 ([10]; OVCAR-3 (Ovarian Cancer), TGI: PG=0): −4.55 log10M
- Log10GI50 ([10]; Ovarian Cancer, OVCAR-3): −10.40
- Log10LC50 [11]: −4.45 log10M
- Log10TGI50 [11]: −4.90 log10M
- Log10LC50 [12]: >−4.00 log10M
- Log10TGI50 [12]: >−4.00 log10M
- Log10GI50 [12]: −10.85
- Log10GI50 [13]: −11.69
- Log10LC50 ([13]; MCF7 (Breast Cancer)): >−4.00 log10M

- IC50 ([14]; NF54, Table I, NF54 strain): 9.2 ± 1.7 nM
- IC50 ([14]; NF54, running text b206, artemisinin): 7.7 nM
SMILES: C[C@@H]1CC[C@H]2[C@@H](C)C(=O)O[C@@H]3O[C@]4(C)CC[C@@H]1[C@]32OO4 [Artemisinin]
- Log10GI50 Delta [1]: −4.07
- Log10GI50 Range [1]: 0.73
- Log10LC50 Delta [1]: −4.00
- Log10LC50 Range [1]: 0.00
- Log10TGI50 Delta [1]: −4.00
- Log10TGI50 Range [1]: 0.06
- Log10LC50 [3]: >−4.00 log10M
- Log10TGI50 [3]: >−4.00 log10M
- Log10GI50 [3]: −4.26
- Log10LC50 [4]: >−4.00 log10M
- Log10TGI50 [4]: >−4.00 log10M
- Log10GI50 [4]: −4.33
- Log10GI50 [5]: −4.73
- Log10LC50 [5]: >−4.00 log10M
- Log10TGI50 [5]: >−4.00 log10M
- concentration for cytotoxicity (percentage growth −50) [5]: greater than 10^−4 M
- Log10LC50 ([15]; A549/ATCC (Non-Small Cell Lung Cancer), LC50: PG=−50): >−4.00 log10M
- Log10TGI50 ([15]; A549/ATCC (Non-Small Cell Lung Cancer), TGI: PG=0): >−4.00 log10M
- Log10GI50 ([15]; Non-Small Cell Lung Cancer, A549/ATCC): −4.17
- Log10LC50 ([16]; HOP-92 (Non-Small Cell Lung Cancer), LC50: PG=−50): >−4.00 log10M
- Log10TGI50 ([16]; HOP-92 (Non-Small Cell Lung Cancer), TGI: PG=0): >−4.00 log10M
- Log10GI50 ([16]; Non-Small Cell Lung Cancer, HOP-92): >−4.00
- Log10LC50 [6]: >−4.00 log10M
- Log10TGI50 [6]: >−4.00 log10M
- Log10GI50 [6]: >−4.00
- Log10GI50 [7]: >−4.00
- Log10LC50 [7]: >−4.00 log10M
- Log10TGI50 [7]: >−4.00 log10M
- Log10GI50 [8]: >−4.00
- Log10LC50 [8]: >−4.00 log10M
- Log10TGI50 [8]: >−4.00 log10M
- Log10GI50 [9]: >−4.00
- Log10LC50 [9]: >−4.00 log10M
- Log10TGI50 [9]: >−4.00 log10M
- Log10LC50 [11]: >−4.00 log10M
- Log10TGI50 [11]: >−4.00 log10M
- Log10GI50 ([11]; Renal Cancer, ACHN): >−4.00
- Log10LC50 [12]: >−4.00 log10M
- Log10TGI50 [12]: −4.00 log10M
- Log10GI50 [12]: −4.17
- Log10GI50 [13]: >−4.00
- Log10LC50 ([13]; MCF7 (Breast Cancer)): >−4.00 log10M
- Log10TGI50 ([13]; MCF7 (Breast Cancer), TGI: PG=0): >−4.00 log10M
- Log10GI50 ([17]; Breast Cancer, HS 578T): >−4.00
- Log10LC50 ([17]; HS 578T (Breast Cancer), LC50: PG=−50): >−4.00 log10M
- Log10TGI50 ([17]; HS 578T (Breast Cancer), TGI: PG=0): >−4.00 log10M
